Measured values as given in patent US4722892A, “Monoclonal antibodies against metal chelates” (priority 1984, dated 1988).
Like-named read-outs stand apart in the source and are kept apart here.

What was measured:
[1] = system: monoclonal antibody CHA255; experiment: Association constants of metal chelates with monoclonal antibody CHA255 by equilibrium dialysis (method of Eisen), displacement of In(III)-(L)-aminobenzyl EDTA; assay type: binding, BALB/c mice; conditions: for Kd: dialysis 24h, 37°, pH 7
Description: (§1) Table I below sets forth the association constants of the two monoclonal antibodies described in Example II for a number of chelates. In Part A, the relative affinities of the antibodies for aminobenzyl EDTA complexes of In(III) and other ions are shown. In Part B, the binding constants of the antibodies for In(III) complexes with other chelating agents are shown. The metals selected for comparison were trivalent ions similar to In(III) and divalent ions whose EDTA complexes form structures similar to that of an In-EDTA complex. The binding constants for the chelates were determined by the method of Eisen, Meth. Med. Res., 10, 106 (1964) by dialysis of the antibody and metal chelates to near equilibrium (24h) at 37° in 0.05M 2-hydroxyethyl-piperazine-ethanesulfonate, 0.lM NaCl, 0.1% NaN3 and 0.1% bovine serum albumin at pH 7. The concentration of antibody binding sites inside the dialysis bag was 10^-7 M, and the concentration of free In(III)-(L)-aminobenzyl EDTA was in the same range.
(§2) Known amounts of another chelate were added to the solution after equilibrium until roughly half of the bound indium chelate had been displaced at equilibrium.

[2] = system: monoclonal antibody CHB235; experiment: Association constants of metal chelates with monoclonal antibody CHB235 by equilibrium dialysis (method of Eisen), displacement of In(III)-(L)-aminobenzyl EDTA; assay type: binding, BALB/c mice; conditions: dialysis 24h, 37°, pH 7
Description: as §1, §2

[3] = metal-EDTA chelate (not the L-Benzyl-EDTA chelate); from Sillen and Martell / Martell and Smith; cited from earlier work
[4] = Table 1 Part B, indium chelates with different chelators, read-out: K A^CHA255 (antibody binding constant for each indium chelate) (converted)
[5] = Table 1 Part B, indium chelates with different chelators, read-out: K A^CHA235 (antibody binding constant for each indium chelate) (converted)

Row | Compound | Kd ([1]; Table 1 Part A, coefficient of variation in parentheses, read-out: K A^CHA255 (antibody binding constant for metal-L-Benzyl-EDTA chelate) (converted)) [nM] | Kd [1, 4] [nM] | affinity (KA) ([1]; summary statement, antibody not named) | Kd ([2]; Table 1 Part A, coefficient of variation on next line, read-out: K A^CHB235 (antibody binding constant for metal-L-Benzyl-EDTA chelate) (converted)) [nM] | Kd [2, 5] [nM] | log K S^EDTA(M) (logarithm of the stability constant for each metal-EDTA chelate) [3]
1 | In(III)-(L)-aminobenzyl EDTA | 0.25 | 0.25 | greater than 10^9 M^-1 | 9.09 | 9.09 | 25.0
2 | O=C(O)CN(CCO)CCN(CC(=O)O)CC(=O)O [HED3A] | – | 23.8 | – | – | 25 | –
3 | O=C(O)CN(CC(=O)O)CC(Cc1ccccc1)N(CC(=O)O)CC(=O)O [D-Benzyl-EDTA] | – | 15.9 | – | – | 27.8 | –
4 | O=C(O)CN(CCN(CC(=O)O)CC(=O)O)CC(=O)O [EDTA] | – | 5.88 | – | – | 7.69 | –
